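Step 1: Grow cells in 96-well plates. Step 2: Expose to compound for 48 hours at 5 concentrations. Step 3: Interpolate endpoints linearly; if unreached, use highest concentration. GI50: concentration for 50% inhibition of growth.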 Active and inactive are the calls of the source. No stated cut-off is given here; in the data, active = GI50 up to about 1.1 µM and inactive = higher.
What was measured:
Experiment in all cases: DTP human tumour cell line panel, 48 h
HOP-92 = tested on: HOP-92
SR = tested on: SR
SW-620 = tested on: SW-620
MCF7 = tested on: MCF7
CCRF-CEM = tested on: CCRF-CEM
KM12 = tested on: KM12
UO-31 = tested on: UO-31
Malme-3M = tested on: Malme-3M
MDA-MB-435 = tested on: MDA-MB-435
LOX IMVI = tested on: LOX IMVI
DU-145 = tested on: DU-145
A549 = tested on: A549
SK-OV-3 = tested on: SK-OV-3
786-0 = tested on: 786-0
COLO 205 = tested on: COLO 205
MDA-MB-231 = tested on: MDA-MB-231
OVCAR-5 = tested on: OVCAR-5
IGROV-1 = tested on: IGROV-1
UACC-257 = tested on: UACC-257
ACHN = tested on: ACHN
OVCAR-4 = tested on: OVCAR-4
OVCAR-3 = tested on: OVCAR-3
HCC 2998 = tested on: HCC 2998
UACC-62 = tested on: UACC-62
BT-549 = tested on: BT-549
NCI-H226 = tested on: NCI-H226
HCT-116 = tested on: HCT-116
HCT-15 = tested on: HCT-15
SF-295 = tested on: SF-295
RPMI-8226 = tested on: RPMI-8226
NCI-H23 = tested on: NCI-H23
SNB-19 = tested on: SNB-19
SK-MEL-28 = tested on: SK-MEL-28
SF-268 = tested on: SF-268
PC-3 = tested on: PC-3
NCI/ADR-RES = tested on: NCI/ADR-RES
CAKI-1 = tested on: CAKI-1
EKVX = tested on: EKVX
Hs-578T = tested on: Hs-578T
HOP-62 = tested on: HOP-62
U-251 = tested on: U-251
NCI-H460 = tested on: NCI-H460
RXF 393 = tested on: RXF 393
SNB-75 = tested on: SNB-75
MDA-N = tested on: MDA-N
SF-539 = tested on: SF-539
T47D = tested on: T47D
NCI-H522 = tested on: NCI-H522
M14 = tested on: M14
OVCAR-8 = tested on: OVCAR-8
A498 = tested on: A498
SK-MEL-5 = tested on: SK-MEL-5
HT-29 = tested on: HT-29
SK-MEL-2 = tested on: SK-MEL-2
TK-10 = tested on: TK-10
SN12C = tested on: SN12C
MOLT-4 = tested on: MOLT-4
HL-60 = tested on: HL-60
K562 = tested on: K562

`CC(C)(C)C(=O)Nc1cccc(-c2ccc[nH]2)n1` was tested, and the GI50 (HOP-92) was > 100 µM (inactive), the GI50 (SR) was 67.1 µM (inactive) and the GI50 (SW-620) was > 100 µM (inactive). For the same molecule, the GI50 (MCF7) was > 100 µM (inactive), the GI50 (CCRF-CEM) was > 100 µM (inactive) and the GI50 (KM12) was > 100 µM (inactive). For the same molecule, the GI50 (UO-31) was > 96.8 µM (inactive), the GI50 (Malme-3M) was > 100 µM (inactive) and the GI50 (MDA-MB-435) was > 44.9 µM (inactive). For the same molecule, the GI50 (LOX IMVI) was > 100 µM (inactive), the GI50 (DU-145) was > 100 µM (inactive) and the GI50 (A549) was > 100 µM (inactive). The GI50 (SK-OV-3) was > 100 µM (inactive), the GI50 (786-0) was > 100 µM (inactive) and the GI50 (COLO 205) was > 100 µM (inactive). For the same molecule, the GI50 (MDA-MB-231) was > 65 µM (inactive), the GI50 (OVCAR-5) was > 100 µM (inactive) and the GI50 (IGROV-1) was > 100 µM (inactive). For the same molecule, the GI50 (UACC-257) was > 84.9 µM (inactive), the GI50 (ACHN) was > 100 µM (inactive) and the GI50 (OVCAR-4) was > 55.6 µM (inactive). For the same molecule, the GI50 (OVCAR-3) was > 83.8 µM (inactive), the GI50 (HCC 2998) was > 100 µM (inactive) and the GI50 (UACC-62) was 86.9 µM (inactive). The GI50 (BT-549) was > 100 µM (inactive), the GI50 (NCI-H226) was > 100 µM (inactive) and the GI50 (HCT-116) was > 100 µM (inactive). For the same molecule, the GI50 (HCT-15) was > 100 µM, the GI50 (SF-295) was 99.8 µM (inactive) and the GI50 (RPMI-8226) was < 0.01 µM (active). For the same molecule, the GI50 (NCI-H23) was > 100 µM (inactive), the GI50 (SNB-19) was > 100 µM (inactive) and the GI50 (SK-MEL-28) was > 100 µM (inactive). The GI50 (SF-268) was > 100 µM (inactive), the GI50 (PC-3) was > 100 µM (inactive) and the GI50 (NCI/ADR-RES) was > 100 µM (inactive). For the same molecule, the GI50 (CAKI-1) was > 100 µM (inactive), the GI50 (EKVX) was > 85.7 µM (inactive) and the GI50 (Hs-578T) was 22.7 µM (inactive). For the same molecule, the GI50 (HOP-62) was > 100 µM (inactive), the GI50 (U-251) was > 70.5 µM (inactive) and the GI50 (NCI-H460) was > 96.8 µM (inactive). The GI50 (RXF 393) was > 100 µM (inactive), the GI50 (SNB-75) was > 60.8 µM (inactive) and the GI50 (MDA-N) was > 100 µM (inactive). For the same molecule, the GI50 (SF-539) was > 100 µM (inactive), the GI50 (T47D) was > 57.5 µM (inactive) and the GI50 (NCI-H522) was > 75 µM (inactive). For the same molecule, the GI50 (M14) was > 100 µM (inactive), the GI50 (OVCAR-8) was > 100 µM (inactive) and the GI50 (A498) was > 100 µM (inactive). The GI50 (SK-MEL-5) was 68.7 µM (inactive), the GI50 (HT-29) was > 100 µM (inactive) and the GI50 (SK-MEL-2) was > 100 µM (inactive). The GI50 (TK-10) was > 100 µM (inactive) and the GI50 (SN12C) was > 100 µM (inactive).
`CC1(C=O)CC(CCc2ccccc2)NC1Cc1ccc(O)cc1` (centres undefined) was tested, and the GI50 (HOP-92) was 15.3 µM (inactive), the GI50 (SR) was 12 µM (inactive) and the GI50 (SW-620) was 23.3 µM (inactive). The GI50 (MCF7) was 14.1 µM (inactive), the GI50 (CCRF-CEM) was 20.2 µM (inactive) and the GI50 (KM12) was 18.2 µM (inactive). For the same molecule, the GI50 (UO-31) was 14.5 µM (inactive), the GI50 (MDA-MB-435) was 17.4 µM (inactive) and the GI50 (LOX IMVI) was 17 µM (inactive). For the same molecule, the GI50 (DU-145) was 17.5 µM (inactive), the GI50 (A549) was 15.4 µM (inactive) and the GI50 (SK-OV-3) was 17.4 µM (inactive). For the same molecule, the GI50 (786-0) was 15.2 µM (inactive), the GI50 (COLO 205) was 10.6 µM (inactive) and the GI50 (MDA-MB-231) was 13.6 µM (inactive). For the same molecule, the GI50 (OVCAR-5) was 17.4 µM (inactive), the GI50 (MOLT-4) was 14.1 µM (inactive) and the GI50 (IGROV-1) was 14 µM (inactive). The GI50 (UACC-257) was 15.1 µM (inactive), the GI50 (ACHN) was 15.3 µM (inactive) and the GI50 (OVCAR-4) was 14.2 µM (inactive). The GI50 (OVCAR-3) was 17 µM (inactive), the GI50 (HCC 2998) was 11.6 µM (inactive) and the GI50 (UACC-62) was 16.6 µM (inactive). For the same molecule, the GI50 (BT-549) was 22.9 µM (inactive), the GI50 (NCI-H226) was 15.5 µM (inactive) and the GI50 (HCT-116) was 15.6 µM (inactive). The GI50 (HCT-15) was 21.3 µM, the GI50 (SF-295) was 17.7 µM (inactive) and the GI50 (RPMI-8226) was 16.2 µM (inactive). For the same molecule, the GI50 (NCI-H23) was 23 µM (inactive), the GI50 (SNB-19) was 14.5 µM (inactive) and the GI50 (SK-MEL-28) was 22.1 µM (inactive). For the same molecule, the GI50 (SF-268) was 16.6 µM (inactive), the GI50 (PC-3) was 13.8 µM (inactive) and the GI50 (NCI/ADR-RES) was 18.8 µM (inactive). For the same molecule, the GI50 (CAKI-1) was 14.8 µM (inactive), the GI50 (HL-60) was 12.6 µM (inactive) and the GI50 (EKVX) was 15.2 µM (inactive). For the same molecule, the GI50 (Hs-578T) was 19.5 µM (inactive), the GI50 (HOP-62) was 18.6 µM (inactive) and the GI50 (U-251) was 13.7 µM (inactive). For the same molecule, the GI50 (NCI-H460) was 16.6 µM (inactive), the GI50 (RXF 393) was 15.7 µM (inactive) and the GI50 (SNB-75) was 14.7 µM (inactive). The GI50 (MDA-N) was 17.4 µM (inactive), the GI50 (SF-539) was 15.3 µM (inactive) and the GI50 (T47D) was 15.8 µM (inactive). For the same molecule, the GI50 (NCI-H522) was 19.4 µM (inactive), the GI50 (M14) was 15.6 µM (inactive) and the GI50 (K562) was 16.7 µM (inactive). For the same molecule, the GI50 (OVCAR-8) was 21 µM (inactive), the GI50 (A498) was 14.6 µM (inactive) and the GI50 (SK-MEL-5) was 15.6 µM (inactive). For the same molecule, the GI50 (HT-29) was 14.9 µM (inactive), the GI50 (SK-MEL-2) was 14.8 µM (inactive) and the GI50 (TK-10) was 17.3 µM (inactive). For the same molecule, the GI50 (SN12C) was 16.9 µM (inactive).

Reference: ChEMBL document CHEMBL1201862, “PubChem BioAssay data set” (2004)
